The values that follow come from ChEMBL document CHEMBL5233222, “Bridging free radical chemistry with drug discovery: A promising way for finding novel drugs efficiently” (Eur J Med Chem, 2020).

A short description of the experiment: Inhibition of AAPH-induced hemolysis of human erythrocytes. The note with it: erythrocyte. It is filed as functional, cell-based.

For the compound `CC(C)=CCC[C@](C)(O[C@@H]1O[C@H](CO[C@@H]2O[C@H](CO)[C@@H](O)[C@H](O)[C@H]2O)[C@@H](O)[C@H](O)[C@H]1O)[C@H]1CC[C@]2(C)[C@@H]1[C@H](O)C[C@@H]1[C@@]3(C)CC[C@H](O[C@@H]4O[C@H](CO)[C@@H](O)[C@H](O)[C@H]4O[C@@H]4O[C@H](CO)[C@@H](O)[C@H](O)[C@H]4O)C(C)(C)[C@@H]3CC[C@]12C` [GINSENOSIDE RB1], half-maximal inhibition (IC50) was put at 3180 nM.
Consider `CC(C)=CCC[C@](C)(O[C@@H]1O[C@H](CO[C@@H]2OC[C@@H](O)[C@H](O)[C@H]2O)[C@@H](O)[C@H](O)[C@H]1O)[C@H]1CC[C@]2(C)[C@@H]1[C@H](O)C[C@@H]1[C@@]3(C)CC[C@H](O[C@@H]4O[C@H](CO)[C@@H](O)[C@H](O)[C@H]4O[C@@H]4O[C@H](CO)[C@@H](O)[C@H](O)[C@H]4O)C(C)(C)[C@@H]3CC[C@]12C` [GINSENOSIDE RB3], for which the IC50 (as a rule, the concentration at which inhibition is half-maximal) was found to be 2650 nM.
